# Reference: US7671061B2, “Methods and compositions for treating pain” (Hydra Biosciences, Inc., priority 2005, dated 2010)
# Legend:
# hTRPA1 [1] = target: T1, hTRPA1 (Homo sapiens, UniProt O75762, K186N); experiment: High throughput Ca2+ fluorescence (Fluo4) assay, AITC stimulation; assay type: cell-based
# T1 construct: expressed in transfected cells; host or cells: HEK293/TREx (Invitrogen), induced with tetracycline
# Summary of the method: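 Read-out is Fluo4 fluorescence, proportional to [Ca2+]i, over ~3 min after AITC challenge, following 2 min compound pre-exposure in HEK293/TREx cells induced with 1 μg/ml tetracycline. Dye: 1 μM, 60 min, room temperature.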
# hTRPA1 [2] = target: T1, hTRPA1; experiment: TRPA1 patch clamp (perforated patch, AITC-activated current); assay type: cell-based
# Description: Patch clamp experiments permit the detection of currents through the TRPA1 channel in the cell line described above. To permit recording of current at a stable level and prevent the “rundown” observed by other labs, it is necessary to use the perforated patch technique, which prevents dialysis of the cytoplasm with the pipette solution. In normal whole-cell patch clamp recordings, a glass electrode is brought into contact with a single cell and a high-resistance (gigaohm) seal is established with the cell membrane. The membrane is then ruptured to achieve the whole-cell configuration, permitting control of the voltage of the cell membrane and measurement of currents flowing across the membrane using the amplifier attached to the electrode and resulting in the replacement of cytoplasm with the pipette solution. In contrast, in the perforated patch mode, an antibiotic, amphotericin, is present in the pipette solution and diffuses into contact with the cell after the seal is achieved, over the course of several minutes. The amphotericin forms ion-permeable pores in the membrane under the pipette, permitting passage of some ions but maintaining most native cytosolic components. A perfusion system permits control of the extracellular solution, including the addition of blockers and activators of the current. The current can be activated by addition of 5 μM AITC to the solution. […] In some cases, cells were grown in low density overnight on glass coverslips. Patch clamp recordings were made in the whole-cell mode with a holding potential of −40 mV. Every 5 seconds, a voltage ramp was applied from −120 to +100 mV, 400 ms in duration. Currents elicited were quantified at −80 mV and +80 mV. […] The external solution consisted of 150 mM NaCl, 4.5 mM KCl, 3 mM MgCl2, 10 mM HEPES, […], 1 mM EGTA, pH 7.4. Upon addition of AITC, TRPA1 current was induced only in TRPA1-expressing cells and not in parental HEK293 TREx cells. Removal of the AITC stimulus causes most of the current to go away. Potential blockers were tested for ability to block both inward and outward currents in the continued presence of AITC.
# [3] = Table 1, read-out: hTRPA1 Fluo4 IC50
# [4] = Table 1, read-out: hTRPA1 Patch IC50
# [5] = Table 2, read-out: hTRPA1 Fluor IC50
# [6] = Table 2, inward current, read-out: hTRPA1 Patch Inwd IC50
# T1 sequence (O75762 whole entry K186N): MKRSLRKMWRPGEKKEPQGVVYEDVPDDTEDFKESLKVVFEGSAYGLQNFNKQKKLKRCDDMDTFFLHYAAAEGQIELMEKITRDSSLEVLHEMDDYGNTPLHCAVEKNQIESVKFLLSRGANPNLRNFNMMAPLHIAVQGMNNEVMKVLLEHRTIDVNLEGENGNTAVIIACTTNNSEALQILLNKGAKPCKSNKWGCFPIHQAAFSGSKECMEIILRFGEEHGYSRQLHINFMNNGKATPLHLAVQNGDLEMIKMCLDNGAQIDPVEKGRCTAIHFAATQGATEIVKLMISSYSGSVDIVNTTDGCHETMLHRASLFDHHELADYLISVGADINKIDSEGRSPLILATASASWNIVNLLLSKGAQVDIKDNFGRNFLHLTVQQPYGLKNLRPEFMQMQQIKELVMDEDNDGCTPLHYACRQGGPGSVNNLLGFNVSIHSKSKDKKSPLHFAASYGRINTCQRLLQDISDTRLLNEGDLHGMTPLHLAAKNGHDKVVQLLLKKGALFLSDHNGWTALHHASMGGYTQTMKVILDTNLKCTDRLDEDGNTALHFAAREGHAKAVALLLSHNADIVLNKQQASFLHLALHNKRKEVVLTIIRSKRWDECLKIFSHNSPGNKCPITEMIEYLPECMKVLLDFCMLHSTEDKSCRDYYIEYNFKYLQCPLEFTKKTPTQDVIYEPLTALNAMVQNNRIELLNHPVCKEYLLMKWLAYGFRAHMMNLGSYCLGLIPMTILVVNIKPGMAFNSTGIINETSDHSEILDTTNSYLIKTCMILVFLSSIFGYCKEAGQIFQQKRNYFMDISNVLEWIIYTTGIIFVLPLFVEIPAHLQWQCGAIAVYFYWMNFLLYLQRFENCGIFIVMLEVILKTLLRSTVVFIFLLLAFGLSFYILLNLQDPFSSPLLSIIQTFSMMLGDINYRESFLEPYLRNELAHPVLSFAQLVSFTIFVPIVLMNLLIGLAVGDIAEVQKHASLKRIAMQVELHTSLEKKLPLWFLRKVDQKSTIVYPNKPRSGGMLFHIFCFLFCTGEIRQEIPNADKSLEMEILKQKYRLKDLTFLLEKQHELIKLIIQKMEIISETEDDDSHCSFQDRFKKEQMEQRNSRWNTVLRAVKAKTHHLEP
IC50 (hTRPA1 [1]; [3]) [µM],IC50 (hTRPA1 [2]; [4]) [nM],IC50 (hTRPA1 [1]; [5]) [µM],IC50 (hTRPA1 [2]; [6]) [nM],Compound,"IC50 (hTRPA1 [2]; hTRPA1 Patch IC50 (nM), Table 1) [nM]"
≤ 5,> 10000,–,–,COC(=O)C1=C(C)NC(=S)NC1c1ccccc1 (stereo not shown),–
≤ 5,≤ 10000,–,–,CCOc1ccc(C2NC(=S)NC(C)=C2C(=O)OC)cc1 (stereo not shown),–
≤ 10,> 10000,–,–,CCOC(=O)C1=C(C)NC(=S)NC1c1cccc(O)c1 (stereo not shown),–
> 10,> 10000,–,–,CCOC(=O)C1=C(c2ccccc2)NC(=S)NC1c1ccc(OC)cc1 (stereo not shown),–
≥ 20,> 10000,–,–,CCOC(=O)C1=C(c2ccccc2)NC(=S)NC1c1ccc(OC(C)C)cc1 (stereo not shown),–
≤ 5,≤ 5000,–,–,CCOC(=O)C1=C(c2ccccc2)NC(=S)NC1c1cccc(OC)c1 (stereo not shown),–
≤ 5,≤ 1000,–,–,CCOC(=O)C1=C(C)NC(=S)NC1c1cccc(OCC)c1 (stereo not shown),–
> 10,> 10000,–,–,CCOC(=O)C1=C(c2ccccc2)NC(=S)NC1c1cc(C)ccc1C (stereo not shown),–
> 10,> 10000,–,–,CCOC(=O)C1=C(c2ccccc2)NC(=S)NC1c1ccc(Cl)c(Cl)c1 (stereo not shown),–
> 10,> 10000,–,–,COC(=O)C1=C(c2ccccc2)NC(=S)NC1c1ccc(F)cc1 (stereo not shown),–
≤ 5,≤ 5000,–,–,COC(=O)C1=C(c2ccccc2)NC(=S)NC1c1ccccc1 (stereo not shown),–
≤ 5,> 10000,–,–,CCCC1=C(C(=O)OCC)C(c2ccccc2Cl)NC(=O)N1 (stereo not shown),–
≤ 5,> 10000,–,–,COC(=O)C1=C(C)N(C)C(=O)NC1c1cccc(Br)c1 (stereo not shown),–
≤ 5,≤ 1000,–,–,COC(=O)C1=C(C)N(C)C(=O)NC1c1ccc(F)c(F)c1 (stereo not shown),–
≤ 5,≤ 5000,–,–,CCOC(=O)C1=C(C)NC(=S)NC1c1ccccc1C (stereo not shown),–
≤ 5,≤ 1000,–,–,COC(=O)C1=C(C)NC(=S)NC1c1ccc(OC)c(Br)c1 (stereo not shown),–
≤ 5,≤ 1000,–,–,COC(=O)C1=C(C)NC(=S)NC1c1c(Cl)cccc1Cl (stereo not shown),–
≤ 5,≤ 5000,–,–,COC(=O)C1=C(C)NC(=S)NC1c1cc(C)ccc1C (stereo not shown),–
≤ 5,≤ 1000,–,–,COC(=O)C1=C(C)NC(=S)NC1c1cccc(Cl)c1Cl (stereo not shown),–
≤ 5,≤ 1000,–,–,C=CCOc1cccc(C2NC(=S)NC(C)=C2C(=O)OCC)c1 (stereo not shown),–
≤ 5,≤ 5000,–,–,COC(=O)C1=C(C)N(C)C(=O)NC1c1cc(O)ccc1Br (stereo not shown),–
≤ 5,> 10000,–,–,COC(=O)C1=C(C)N(C)C(=O)NC1c1ccc(O)c(Cl)c1 (stereo not shown),–
≤ 5,≤ 500,–,–,CC1=C(C(=O)OC(C)C)C(c2ccc(C)c(Br)c2)NC(=O)N1 (stereo not shown),–
–,–,≥ 20,> 10000,CN(C)c1ccc(NC(=O)Cn2cnc3c2c(=O)n(C)c(=O)n3C)cc1 [Compound 201],–
–,–,> 10,> 10000,Cn1c(=O)c2c(ncn2CC(=O)NC(c2ccccc2)c2ccccc2)n(C)c1=O [Compound 203],–
–,–,≤ 10,> 10000,Cc1cc(Br)ccc1NC(=O)Cn1cnc2c1c(=O)n(C)c(=O)n2C [Compound 204],–

IC50 (hTRPA1 [1]; [3]) [µM],IC50 (hTRPA1 [2]; [4]) [nM],IC50 (hTRPA1 [1]; [5]) [µM],IC50 (hTRPA1 [2]; [6]) [nM],Compound,"IC50 (hTRPA1 [2]; hTRPA1 Patch IC50 (nM), Table 1) [nM]"
–,–,> 10,≤ 10000,Cn1c(=O)c2c(ncn2CC(=O)NCc2cccnc2)n(C)c1=O [Compound 206],–
–,–,> 10,≤ 10000,COc1ccc(NC(=O)Cn2cnc3c2c(=O)n(C)c(=O)n3C)cc1 [Compound 207],–
–,–,≤ 10,> 10000,CCOc1ccc(NC(=O)Cn2cnc3c2c(=O)n(C)c(=O)n3C)cc1 [Compound 208],–
–,–,≤ 10,> 10000,Cn1c(=O)c2c(ncn2CC(=O)Nc2ccc(F)cc2)n(C)c1=O [Compound 209],–
–,–,≥ 20,≤ 10000,Cn1c(=O)c2c(ncn2CC(=O)Nc2ccc([N+](=O)[O-])cc2)n(C)c1=O [Compound 210],–
–,–,> 10,> 10000,Cn1c(=O)c2c(ncn2CC(=O)Nc2ccncc2)n(C)c1=O [Compound 211],–
–,–,> 10,> 10000,Cn1c(=O)c2c(ncn2CC(=O)Nc2ccc(C(N)=O)cc2)n(C)c1=O [Compound 212],–
–,–,≤ 10,> 10000,Cn1c(=O)c2c(ncn2CC(=O)Nc2ccc3ccccc3c2)n(C)c1=O [Compound 213],–
–,–,≤ 10,≤ 10000,Cn1c(=O)c2c(ncn2CC(=O)Nc2ccc(C#N)cc2)n(C)c1=O [Compound 214],–
–,–,≤ 1,≤ 5000,Cn1c(=O)c2c(ncn2CC(=O)Nc2ccc(OCc3ccccc3)cc2)n(C)c1=O [Compound 224],–
–,–,> 10,> 10000,Cn1c(=O)c2c(ncn2CC(=O)Nc2nccs2)n(C)c1=O [Compound 225],–
–,–,> 10,> 10000,Cn1c(=O)c2c(ncn2CC(=O)Nc2ccc(S(N)(=O)=O)cc2)n(C)c1=O [Compound 228],–
–,–,≤ 5,≤ 1000,COc1cc([N+](=O)[O-])ccc1NC(=O)Cn1cnc2c1c(=O)n(C)c(=O)n2C [Compound 229],–
–,–,≤ 10,≤ 10000,Cn1c(=O)c2c(ncn2CC(=O)Nc2nc(-c3ccccc3)cs2)n(C)c1=O [Compound 230],–
–,–,≤ 5,≤ 5000,Cc1ccc2nc(NC(=O)Cn3cnc4c3c(=O)n(C)c(=O)n4C)sc2c1 [Compound 233],–
–,–,≤ 5,≤ 10000,COc1ccc2nc(NC(=O)Cn3cnc4c3c(=O)n(C)c(=O)n4C)sc2c1 [Compound 234],–
–,–,> 10,≤ 10000,CC(C)Cc1nnc(NC(=O)Cn2cnc3c2c(=O)n(C)c(=O)n3C)s1 [Compound 235],–
–,–,> 10,≤ 10000,Cn1c(=O)c2c(ncn2CC(=O)Nc2ccc3c(c2)OCO3)n(C)c1=O [Compound 237],–
–,–,≤ 5,≤ 1000,Cn1c(=O)c2c(ncn2CC(=O)Nc2ccc(Nc3ccccc3)cc2)n(C)c1=O [Compound 250],–
–,–,≤ 5,≤ 1000,Cn1c(=O)c2c(ncn2CC(=O)Nc2ccc(Cl)cc2)n(C)c1=O [Compound 251],–
–,–,≤ 5,≤ 10000,Cn1c(=O)c2c(ncn2CC(=O)Nc2ccc(N3CCCCC3)cc2)n(C)c1=O [Compound 252],–
–,–,≤ 1,≤ 1000,Cn1c(=O)c2c(ncn2CC(=O)Nc2ccc(SC(F)F)cc2)n(C)c1=O [Compound 257],–
–,–,–,≤ 10000,"Cc1cccc(CCNC(=O)Cn2cnc3c2c(=O)n(C)c(=O)n3C)c1 [Compound 407, 2-(1,3-Dimethyl-2,6-dioxo-1,2,3,6-tetrahydropurin-7-yl)-N-[2-(3-methyl-phenyl)-ethyl]-acetamide]",–
–,–,–,≤ 5000,"COc1cccc(CCNC(=O)Cn2cnc3c2c(=O)n(C)c(=O)n3C)c1 [Compound 408, 2-(1,3-Dimethyl-2,6-dioxo-1,2,3,6-tetrahydropurin-7-yl)-N-[2-(3-methoxy-phenyl)-ethyl]acetamide]",–
–,–,–,≤ 10000,"Cn1c(=O)c2c(ncn2CC(=O)NCCc2ccc(C#N)cc2)n(C)c1=O [Compound 409, N-[2-(4-Cyanophenyl)-ethyl]-2-(1,3-dimethyl-2,6-dioxo-1,2,3,6-tetrahydro-purin-7-yl)-acetamide]",–

Compound,IC50 (hTRPA1 [1]; [3]) [µM],IC50 (hTRPA1 [2]; [4]) [nM],IC50 (hTRPA1 [1]; [5]) [µM],IC50 (hTRPA1 [2]; [6]) [nM],"IC50 (hTRPA1 [2]; hTRPA1 Patch IC50 (nM), Table 1) [nM]"
CCOC(=O)C1=C(C)NC(=S)NC1c1cccc(OC)c1 (stereo not shown),≤ 5,–,–,–,≤ 10000
CCOC(=O)C1=C(c2ccccc2)NC(=S)NC1c1cc(O)ccc1Br (stereo not shown) [drawing 264],–,≤ 1000,–,–,–
CCOC(=O)C1=C(c2ccccc2)NC(=S)NC1c1cc(O)ccc1Br (stereo not shown) [drawing 265],–,≤ 500,–,–,–
